Test results: patent publication US6737383B1, “Herbicidal oxadiazolidines” (priority 1999, dated 2004)

Assays:
wild oat = assay: Test B pre/postemergence wild oat; format: in vivo, Avena fatua
Summary of the method: (§1)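 Herbicidal effect was estimated by eye on a ten-point control scale after plants spent twelve to sixteen days in a greenhouse following soil or foliar treatment. Foliar sprays targeted plants at one to four leaves; all doses were formulated in a non-phytotoxic solvent with surfactant.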

velvetleaf = assay: Test B pre/postemergence velvetleaf; format: in vivo, Abutilon theophrasti
Summary of the method: as §1

purple nutsedge = assay: Test B pre/postemergence purple nutsedge; format: in vivo, Cyperus rotundus
Summary of the method: as §1

duck salad = assay: Test B flood test duck salad; format: in vivo, Heteranthera limosa
Summary of the method: (§2)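 Flood test on plants grown to the 2-leaf stage; treated plants kept in greenhouse twelve to sixteen days, then visually rated against controls on a 0 (no effect) to 10 (complete control) scale.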

crabgrass = assay: Test B pre/postemergence crabgrass; format: in vivo, Digitaria sanguinalis
Summary of the method: as §1

surinam grass = assay: Test B pre/postemergence surinam grass; format: in vivo, Brachiaria decumbens
Summary of the method: as §1

morningglory = assay: Test B pre/postemergence morningglory; format: in vivo, Ipomoea hederacea
Summary of the method: as §1

blackgrass = assay: Test B pre/postemergence blackgrass; format: in vivo, Alopecurus myosuroides
Summary of the method: as §1

bamyardgrass = assay: Test B flood test barnyardgrass; format: in vivo, Echinochloa crus-galli
Summary of the method: as §2

bedstraw = assay: Test B pre/postemergence bedstraw; format: in vivo, Galium aparine
Summary of the method: as §1

rice = assay: Test B flood test rice; format: in vivo, Oryza sativa
Summary of the method: as §2

corn = assay: Test B pre/postemergence corn; format: in vivo, Zea mays
Summary of the method: as §1

wheat = assay: Test B pre/postemergence wheat; format: in vivo, Triticum aestivum
Summary of the method: as §1

smallflower flatsedge = assay: Test B flood test smallflower flatsedge; format: in vivo, Cyperus difformis
Summary of the method: as §2

cocklebur = assay: Test B pre/postemergence cocklebur; format: in vivo, Xanthium strumarium
Summary of the method: as §1

giant foxtail = assay: Test B pre/postemergence giant foxtail; format: in vivo, Setaria faberii
Summary of the method: as §1

[1] = Preemergence, Rate 62 g/ha, scale of 0 to 10 where 0 is no effect and 10 is complete control
[2] = Preemergence, Rate 250 g/ha, scale of 0 to 10 where 0 is no effect and 10 is complete control
[3] = Preemergence, Rate 500 g/ha, scale of 0 to 10 where 0 is no effect and 10 is complete control
[4] = Rate 62 g/ha, Postemergence, scale of 0 to 10 where 0 is no effect and 10 is complete control
[5] = Rate 125 g/ha, Preemergence, scale of 0 to 10 where 0 is no effect and 10 is complete control
[6] = Rate 500 g/ha, Postemergence, scale 0 to 10, 0 no effect, 10 complete control
[7] = Rate 62 g/ha, headed Pre-emergence (flood test species), scale 0 to 10 (0 no effect, 10 complete control)
[8] = Rate 125 g/ha, Pre-emergence, flood test species, scale 0 to 10 where 0 is no effect and 10 is complete control
[9] = Rate 250 g/ha, Pre-emergence, flood-test species, scale 0 to 10, 0 is no effect, 10 is complete control
[10] = Rate 500 g/ha, Pre-emergence, flood test species, scale 0 to 10 (0 no effect, 10 complete control)
[11] = Rate 125 g/ha, Postemergence, scale 0 to 10

CC(C)N(C(=O)n1oc(=O)n(C2CC2)c1=O)c1ccccc1 [Compound 243]
Wild oats plant response rating (wild oat; [1]): 3
Wild oats plant response rating (wild oat; [2]): 9
Plant response rating, Wild oats (wild oat; [3]): 9
Wild oats plant response rating (wild oat; [4]): 0
Wild oats plant response rating (wild oat; [5]): 6
Wild oats plant response rating (wild oat; [6]): 4
Velvetleaf plant response rating (velvetleaf; [1]): 4
Velvetleaf plant response rating (velvetleaf; [2]): 10
Plant response rating, Velvetleaf (velvetleaf; [3]): 10
Velvetleaf plant response rating (velvetleaf; [4]): 0
Velvetleaf plant response rating (velvetleaf; [5]): 6
Velvetleaf plant response rating (velvetleaf; [6]): 7
Nutsedge plant response rating (purple nutsedge; [1]): 0
Nutsedge plant response rating (purple nutsedge; [2]): 0
Nutsedge plant response rating (purple nutsedge; [4]): 0
Nutsedge plant response rating (purple nutsedge; [5]): 0
Nutsedge plant response rating (purple nutsedge; [6]): 7
Ducksalad plant response rating (duck salad; [7]): 0
Ducksalad plant response rating (duck salad; [8]): 0
Ducksalad plant response rating (duck salad; [9]): 0
Ducksalad plant response rating (duck salad; [10]): 0
Crabgrass plant response rating (crabgrass; [1]): 7
Crabgrass plant response rating (crabgrass; [2]): 9
Plant response rating, Crabgrass (crabgrass; [3]): 10
Crabgrass plant response rating (crabgrass; [4]): 3
Crabgrass plant response rating (crabgrass; [5]): 8
Plant response rating (0 to 10; 0 is no effect, 10 is complete control), Crabgrass (crabgrass; Rate 250 g/ha, Postemergence): 9
Crabgrass plant response rating (crabgrass; [6]): 9
B. signalgrass plant response rating (surinam grass; [1]): 4
B. signalgrass plant response rating (surinam grass; [2]): 7
Plant response rating, B. signalgrass (surinam grass; [3]): 10
B. signalgrass plant response rating (surinam grass; [4]): 0
B. signalgrass plant response rating (surinam grass; Rate 125 g/ha, Postemergence, scale 0 (no effect) to 10 (complete control)): 4
B. signalgrass plant response rating (surinam grass; [5]): 5
Plant response rating (0 to 10; 0 is no effect, 10 is complete control), B. signalgrass (surinam grass; Rate 250 g/ha, Postemergence): 9
B. signalgrass plant response rating (surinam grass; [6]): 9
Morningglory plant response rating (morningglory; [1]): 2
Morningglory plant response rating (morningglory; [2]): 8
Plant response rating, Morningglory (morningglory; [3]): 10
Morningglory plant response rating (morningglory; [4]): 5
Morningglory plant response rating (morningglory; [5]): 3
Plant response rating (0 to 10; 0 is no effect, 10 is complete control), Morningglory (morningglory; Rate 250 g/ha, Postemergence): 7
Morningglory plant response rating (morningglory; [6]): 8
Blackgrass plant response rating (blackgrass; [1]): 8
Blackgrass plant response rating (blackgrass; [2]): 10
Plant response rating, Blackgrass (blackgrass; [3]): 10
Blackgrass plant response rating (blackgrass; [4]): 7
Blackgrass plant response rating (blackgrass; [11]): 8
Blackgrass plant response rating (blackgrass; [5]): 10
Plant response rating (0 to 10; 0 is no effect, 10 is complete control), Blackgrass (blackgrass; Rate 250 g/ha, Postemergence): 9
Blackgrass plant response rating (blackgrass; [6]): 9
Barnyardgrass plant response rating (bamyardgrass; [7]): 0
Barnyardgrass plant response rating (bamyardgrass; [8]): 0
Barnyardgrass plant response rating (bamyardgrass; [9]): 0
Barnyardgrass plant response rating (bamyardgrass; [10]): 0
Bedstraw plant response rating (bedstraw; [1]): 0
Bedstraw plant response rating (bedstraw; [2]): 5
Plant response rating, Bedstraw (bedstraw; [3]): 9
Bedstraw plant response rating (bedstraw; [4]): 0
Bedstraw plant response rating (bedstraw; [11]): 4
Bedstraw plant response rating (bedstraw; [5]): 0
Plant response rating (0 to 10; 0 is no effect, 10 is complete control), Bedstraw (bedstraw; Rate 250 g/ha, Postemergence): 5
Bedstraw plant response rating (bedstraw; [6]): 5
Rice plant response rating (rice; [7]): 0
Rice plant response rating (rice; [8]): 0
Rice plant response rating (rice; [9]): 0
Rice plant response rating (rice; [10]): 0
Corn plant response rating (corn; [1]): 2
Corn plant response rating (corn; [2]): 6
Plant response rating, Corn (corn; [3]): 9
Corn plant response rating (corn; [4]): 0
Corn plant response rating (corn; [11]): 2
Corn plant response rating (corn; [5]): 3
Plant response rating (0 to 10; 0 is no effect, 10 is complete control), Corn (corn; Rate 250 g/ha, Postemergence): 5
Corn plant response rating (corn; [6]): 7
Wheat plant response rating (wheat; [1]): 5
Wheat plant response rating (wheat; [2]): 8
Plant response rating, Wheat (wheat; [3]): 9
Wheat plant response rating (wheat; [4]): 2
Wheat plant response rating (wheat; [5]): 8
Wheat plant response rating (wheat; [6]): 8
S. Flatsedge plant response rating (smallflower flatsedge; [7]): 0
S. Flatsedge plant response rating (smallflower flatsedge; [8]): 0
S. Flatsedge plant response rating (smallflower flatsedge; [9]): 0
S. Flatsedge plant response rating (smallflower flatsedge; [10]): 0
Cocklebur plant response rating (cocklebur; [1]): 0
Cocklebur plant response rating (cocklebur; [2]): 0
Plant response rating, Cocklebur (cocklebur; [3]): 5
Cocklebur plant response rating (cocklebur; [4]): 0
Cocklebur plant response rating (cocklebur; [11]): 2
Cocklebur plant response rating (cocklebur; [5]): 0
Plant response rating (0 to 10; 0 is no effect, 10 is complete control), Cocklebur (cocklebur; Rate 250 g/ha, Postemergence): 4
Cocklebur plant response rating (cocklebur; [6]): 0
Giant foxtail plant response rating (giant foxtail; [1]): 10
Giant foxtail plant response rating (giant foxtail; [2]): 10
Plant response rating, Giant foxtail (giant foxtail; [3]): 10
Giant foxtail plant response rating (giant foxtail; [4]): 3
Giant foxtail plant response rating (giant foxtail; [5]): 10
Plant response rating (0 to 10; 0 is no effect, 10 is complete control), Giant foxtail (giant foxtail; Rate 250 g/ha, Postemergence): 8
Giant foxtail plant response rating (giant foxtail; [6]): 8
